IC50 data for 64 molecules are collected here from patent US9242973B2, “Chromane compounds” (CoMentis, Inc., priority 2012, dated 2016).

Structures can show the parent of a compound that is named as a salt. A value given as a limit tells only on which side of the number the result lay.

The assay relates to Aβ production in SK-N-BE(2) neuroblastoma cells. Description: Test Example 3: Aβ production inhibition in cell (Aβ40 ELISA, SK-N-BE(2)). The settings on record: Homo sapiens, SKNBE2, 6 h, read-out: Test Example 3 IC50, SK-N-BE(2) cells, 6 hours, Aβ40 ELISA normalized by viability.
As a reminder, the IC50 is the concentration that gives 50% inhibition. Regarding `CC1(C)Oc2ccc(-c3cncc(Cl)n3)cc2C2(COC(N)=N2)C12COC2` (stereo not shown) [RP 150], the IC50 came to 450 nM.
To `CC1(C)Oc2ccc(-c3cncnc3)cc2C2(COC(N)=N2)C12COC2` (single isomer, unassigned) [RP 51b, 2′,2′-dimethyl-6′-(pyrimidin-5-yl)dispiro[1,3-oxazole-4,4′-chromene-3′,3″-oxetan]-2-amine] belongs 72 nM; to `CNC(=O)c1cc(F)cc(-c2ccc3c(c2)C2(COC(N)=N2)C2(COC2)C(C)(C)O3)c1` (stereo not shown) [RP 171], 3100 nM.
Turning to `CC#Cc1cncc(-c2ccc3c(c2)C2(COC(N)=N2)C2(COC2)C(C)(C)O3)c1` (stereo not shown) [RP 110], the concentration for half-maximal inhibition (IC50) stood at 9.2 nM.
To `CC#Cc1cncc(-c2ccc3c(c2)C2(COC(N)=N2)C2(COC2)C(CCC(F)(F)F)O3)c1` (stereo not shown) [RP 96] belongs 22 nM; to `CC1(C)Oc2ccc(-c3cccnc3F)cc2C2(COC(N)=N2)C12COC2` (stereo not shown) [RP 82], 36 nM.
To `NC1=NC2(CO1)c1cc(-c3cncc(C(F)F)c3)ccc1OC1(CCC1)C21COC1` (stereo not shown) [RP 118] belongs 990 nM; to `CC1(C)Oc2ccc(-c3c(F)ccc(F)c3F)cc2C2(COC(N)=N2)C12COC2` (stereo not shown) [RP 185], 760 nM; to `CC#Cc1cncc(-c2cc3c(cc2F)OCC2(CC2)C32COC(N)=N2)c1` (stereo not shown) [RP 112], 660 nM.
To `CC1(C)Oc2ccc(-c3cc(F)cc(Cl)c3)cc2C2(COC(N)=N2)C12COC2` (stereo not shown) [RP 146, 6′-(3-chloro-5-fluorophenyl)-2′,2′-dimethyldispiro[1,3-oxazole-4,4′-chromene-3′,3″-oxetan]-2-amine] belongs 210 nM; to `CC#Cc1cncc(-c2ccc3c(c2)C2(COC(N)=N2)C2(COC2)C(CC)O3)c1` (stereo not shown) [RP 86], 58 nM; to `NC1=NC2(CO1)c1cc(-c3cncc(OCC(F)F)c3)ccc1OCC21CC1` (stereo not shown) [RP 59], 76 nM.
Take `NC1=NC2(CO1)c1cc(NC(=O)c3ncc(Br)cn3)ccc1OCC21CC1` (stereo not shown) [RP 189]: the IC50 was 43 nM.
Regarding `NC1=NC2(CO1)c1cc(-c3cncnc3)ccc1OC1(CCC1)C21COC1` (stereo not shown) [RP 5], the IC50 worked out at 590 nM.
To `NC1=NC2(CO1)c1cc(-c3cc(Cl)cnc3F)ccc1OCC21COC1` (stereo not shown) [RP 34] belongs 260 nM.
To `NC1=NC2(CO1)c1cc(-c3cncnc3)ccc1OC(CC1CC1)C21COC1` (stereo not shown) [RP 204] belongs 240 nM.
To `CC1(C)Oc2ccc(NC(=O)c3cnc(C(F)F)cn3)cc2[C@@]2(COC(N)=N2)C12CC2` [Example 224, N-[(4′R)-2″-amino-2′,2′-dimethyldispiro[cyclopropane-1,3′-chromene-4′,4″-[1,3]oxazol]-6′-yl]-5-(difluoromethyl)pyrazine-2-carboxamide] belongs 0.63 nM; to `CC1(C)Oc2ccc(Br)cc2C2(CSC(N)=N2)C12COC2` (stereo not shown) [RP 42], 5900 nM.
On to `CC(C)Cc1ccc2c(c1)C1(COC(N)=N1)C1(COC1)C1(CCC1)O2` (stereo not shown) [RP 46, 6′-isobutyltrispiro[cyclobutane-1,2′-chromene-4′,4″-[1,3]oxazole-3′,3′″-oxetan]-2″-amine], for which the IC50 is 1400 nM.
To `NC1=NC2(CO1)c1cc(-c3cncnc3)ccc1OCC21CCCO1` (stereo not shown) [RP 97] belongs 2600 nM; to `NC1=NC2(CO1)c1cc(-c3cncnc3)ccc1OCC21COC1` (stereo not shown) [RP 36], 810 nM; to `NC1=NC2(CO1)c1cc(-c3cncnc3)ccc1OC(C1CC1)C21COC1` (stereo not shown) [RP 88], 1400 nM.
With `CC1(C)Oc2ccc(NC(=O)c3ccc(Cl)cn3)cc2[C@@]2(COC(N)=N2)C12COC2` [Example 218, N-[(4S)-2-amino-2′,2′-dimethyldispiro[1,3-oxazole-4,4′-chromene-3′,3″-oxetan]-6′-yl]-5-chloropyridine-2-carboxamide], the IC50 was determined as 0.78 nM.
For `NC1=NC2(CO1)c1cc(-c3cccc(F)c3F)ccc1OC1(CCC1)C21COC1` (stereo not shown) [RP 138], the IC50 is 1500 nM.
To `CC1(C)Oc2ccc(-c3cc(C#N)ccc3F)cc2C2(COC(N)=N2)C12COC2` (stereo not shown) [RP 170] belongs 400 nM.
To `CC1(C)Oc2ccc(NC(=O)c3ccc(Br)cn3)cc2[C@@]2(COC(N)=N2)C12COC2` [Example 219] belongs 2.2 nM.
To `NC1=NC2(CO1)c1cc(-c3cncc(OCC(F)(F)F)c3)ccc1OCC21CC1` (stereo not shown) [RP 58] belongs 180 nM; to `CC1(C)Oc2ccc(-c3cc(Cl)cnc3F)cc2C2(COC(N)=N2)C12COC2` (stereo not shown) [RP 154], 32 nM.
Consider `N#Cc1ncccc1-c1ccc2c(c1)C1(COC(N)=N1)C1(COC1)C1(CCC1)O2` (stereo not shown) [RP 115, 3-(2″-aminotrispiro[cyclobutane-1,2′-chromene-4′,4″-[1,3]oxazole-3′,3′″-oxetan]-6′-yl)pyridine-2-carbonitrile], for which the IC50 was 1100 nM.
On to `NC1=NC2(CO1)c1cc(C3=CCCCC3)ccc1OC1(CCC1)C21COC1` (stereo not shown) [RP 135], for which the IC50 amounted to 1800 nM.
To `CCC(CC)Cc1ccc2c(c1)C1(COC(N)=N1)C1(COC1)C1(CCC1)O2` (stereo not shown) [RP 47] belongs 1400 nM.
To `CCC1Oc2ccc(-c3cncnc3)cc2C2(COC(N)=N2)C12COC2` (stereo not shown) [RP 84] belongs 410 nM.
To `CC1(C)Oc2ccc(-c3cccc(C4CC4)c3)cc2C2(COC(N)=N2)C12COC2` (stereo not shown) [RP 140] belongs 410 nM; to `CC1(C)Oc2ccc(-c3cc(F)ncc3Cl)cc2C2(COC(N)=N2)C12COC2` (stereo not shown) [RP 158], 370 nM.
In the case of `NC1=NC2(c3cc(-c4cncnc4)ccc3OCC23CC3)C(F)(F)CO1` (stereo not shown) [RP 206], the IC50 is over 30000 nM.
To `CC#Cc1cncc(-c2ccc3c(c2)C2(COC(N)=N2)C2(COC2)CO3)n1` (stereo not shown) [RP 22] belongs 2900 nM; to `NC1=NC2(CS1)c1cc(Br)ccc1OCC21COC1` (stereo not shown) [RP 41, 6′-bromodispiro[oxetane-3,3′-chromene-4′,4″-[1,3]thiazol]-2″-amine], over 30000 nM; to `CC#Cc1cncc(-c2ccc3c(c2)C2(COC(N)=N2)C2(COC2)C(CCC)O3)c1` (stereo not shown) [RP 92], 37 nM.
As to `NC1=NC2(CO1)c1cc(-c3cncnc3)ccc1OCC21CC(F)(F)C1` (stereo not shown) [RP 208], the IC50 is 6100 nM.
To `CC#Cc1cncc(-c2ccc3c(c2)C2(COC(N)=N2)C2(CCC2)CO3)c1` (stereo not shown) [RP 113] belongs 470 nM.
To `Cc1cc(-c2ccc3c(c2)C2(COC(N)=N2)C2(COC2)C(C)(C)O3)cnc1F` (stereo not shown) [RP 157] belongs 660 nM; to `CCOc1cncc(-c2ccc3c(c2)C2(COC(N)=N2)C2(CC2)CO3)c1` (stereo not shown) [RP 106], 160 nM.
Turning to `COc1cccc(-c2ccc3c(c2)C2(COC(N)=N2)C2(COC2)C(C)(C)O3)c1` (stereo not shown) [RP 142], the half-maximal inhibitory concentration (IC50) was determined as 150 nM.
To `CC#Cc1cncc(-c2ccc3c(c2)C2(COC(N)=N2)C2(CC2)CO3)c1` (single isomer, unassigned) [RP 52a, 6′-[5-(prop-1-yn-1-yl)pyridin-3-yl]dispiro[cyclopropane-1,3′-chromene-4′,4″-[1,3]oxazol]-2″-amine] belongs 75 nM.
To `CC1(C)Oc2ccc(-c3ccc4c(c3)OCO4)cc2C2(COC(N)=N2)C12COC2` (stereo not shown) [RP 182] belongs 2500 nM.
Turning to `CC1(C)Oc2ccc(-c3ccc4[nH]ccc4c3)cc2C2(COC(N)=N2)C12COC2` (stereo not shown) [RP 174, 6′-(1H-indol-5-yl)-2′,2′-dimethyldispiro[1,3-oxazole-4,4′-chromene-3′,3″-oxetan]-2-amine], the IC50 came to 3400 nM.
To `Cc1cc(F)cc(-c2ccc3c(c2)C2(COC(N)=N2)C2(COC2)C(C)(C)O3)c1` (stereo not shown) [RP 148] belongs 480 nM; to `NC1=NC2(CO1)c1cc(-c3cncc(OC(F)F)c3)ccc1OCC21CC1` (stereo not shown) [RP 60], 160 nM; to `CC1(C)Oc2ccc(NC(=O)c3ccc(Cl)cn3)cc2[C@@]2(COC(N)=N2)C12CC2` [Example 221], 0.16 nM.
To `NC1=NC2(CO1)c1cc(-c3cccnc3F)ccc1OCC21CC1` (stereo not shown) [RP 103] belongs 450 nM.
To `CC#Cc1cncc(-c2ccc3c(c2)C2(CSC(N)=N2)C2(COC2)CO3)c1` (stereo not shown) [RP 68] belongs 500 nM; to `Cc1cnc(Cl)c(-c2ccc3c(c2)C2(COC(N)=N2)C2(COC2)C(C)(C)O3)c1` (stereo not shown) [RP 151], 280 nM; to `CC1(C)Oc2ccc(-c3cc(F)ccn3)cc2C2(COC(N)=N2)C12COC2` (stereo not shown) [RP 149], 1100 nM.
Regarding `CC1(C)Oc2ccc(-c3cccnc3Cl)cc2C2(COC(N)=N2)C12COC2` (stereo not shown) [RP 156], the IC50 worked out at 180 nM.
To `NC1=NC2(CO1)c1cc(-c3cc(F)ccc3F)ccc1OC1(CCC1)C21COC1` (stereo not shown) [RP 130] belongs 1700 nM.
To `COc1cnc(C(=O)Nc2ccc3c(c2)[C@@]2(COC(N)=N2)C2(CC2)C(C)(C)O3)cn1` [Example 223, N-[(4′R)-2″-amino-2′,2′-dimethyldispiro[cyclopropane-1,3′-chromene-4′,4″-[1,3]oxazol]-6′-yl]-5-me thoxypyrazine-2-carboxamide] belongs 3.1 nM.
`C[C@@H]1Oc2ccc(-c3cccnc3F)cc2[C@@]2(COC(N)=N2)C12COC2` (racemic) [RP 79]: the IC50 was found to be 450 nM.
Turning to `COc1cncc(-c2ccc3c(c2)C2(COC(N)=N2)C2(COC2)C2(CCC2)O3)c1` (stereo not shown) [RP 72], the IC50 was 68 nM.
In the case of `CC1(C)Oc2ccc(-c3cncnc3)cc2C2(CSC(N)=N2)C12COC2` (stereo not shown) [RP 54, 2′,2′-dimethyl-6′-(pyrimidin-5-yl)dispiro[oxetane-3,3′-chromene-4′,4″-[1,3]thiazol]-2″-amine hydrochloride], the IC50 came out at 79 nM.
On to `COCC#Cc1cncc(-c2ccc3c(c2)C2(COC(N)=N2)C2(COC2)CO3)c1` (stereo not shown) [RP 19, 6′-[5-(3-methoxyprop-1-yn-1-yl)pyridin-3-yl]dispiro[1,3-oxazole-4,4′-chromene-3′,3″-oxetan]-2-amine], for which the IC50 came to 430 nM.
To `NC1=NC2(CO1)c1cc(-c3cccnc3)ccc1OC1(CCC1)C21COC1` (stereo not shown) [RP 209] belongs 830 nM.
As for `CCCC1Oc2ccc(-c3cncnc3)cc2C2(COC(N)=N2)C12COC2` (stereo not shown) [RP 91], the 50% inhibitory concentration (IC50) amounted to 340 nM.
To `NC1=NC2(CO1)c1cc(-c3cncnc3)ccc1OCC21CC1` (stereo not shown) [RP 100] belongs 250 nM; to `COCc1cnn(-c2ccc3c(c2)C2(COC(N)=N2)C2(COC2)C2(CCC2)O3)c1` (stereo not shown) [RP 4], 7200 nM.
